Patent EP0549857A1, “Antibacterial quinolone carboxylic acid derivatives” (KOREA RESEARCH INSTITUTE OF CHEMICAL TECHNOLOGY, priority 1991, dated 1993)
Converted amounts (≈) assume the structure as drawn. Read-outs that look alike come from different tables or passages of the source.

Key:
[1] = system: Streptococcus pyogenes 308A; experiment: In vitro anti-bacterial activity test (MIC, two-fold agar dilution); format: cell-based; settings: Mueller-Hinton agar, 10⁷ CFU/mℓ, 37°C, 18 hours, read-out: MIC
[2] = system: Streptococcus pyogenes 77A; experiment: as above; format: cell-based
[3] = system: Streptococcus faecium MD 8b; experiment: as above; format: cell-based; settings: Enterococcus faecium, MD8B
[4] = system: Staphylococcus aureus SG 511; experiment: as above; format: cell-based
[5] = system: Staphylococcus aureus 285; experiment: as above; format: cell-based
[6] = system: Staphylococcus aureus 503; experiment: as above; format: cell-based
Escherichia coli O 55 = experiment: as above; format: cell-based; settings: O55, Mueller-Hinton agar, 10⁷ CFU/mℓ, 37°C, 18 hours, read-out: MIC
Escherichia coli DC 0 = experiment: as above; format: cell-based; settings: DC0, Mueller-Hinton agar, 10⁷ CFU/mℓ, 37°C, 18 hours, read-out: MIC
Escherichia coli DC 2 = experiment: as above; format: cell-based; settings: DC2, Mueller-Hinton agar, 10⁷ CFU/mℓ, 37°C, 18 hours, read-out: MIC
[7] = system: Pseudomonas aeruginosa 9027; experiment: as above; format: cell-based
[8] = system: Pseudomonas aeruginosa 1592E; experiment: as above; format: cell-based; settings: Mueller-Hinton agar, 10⁷ CFU/mℓ, 37°C, 18 hours, read-out: MIC
[9] = system: Pseudomonas aeruginosa 1771; experiment: as above; format: cell-based
[10] = system: Pseudomonas aeruginosa 1771M; experiment: as above; format: cell-based; settings: 18 h
Salmonella typhimurium = experiment: as above; format: cell-based; settings: Salmonella enterica, Mueller-Hinton agar, 10⁷ CFU/mℓ, 37°C, 18 hours, read-out: MIC
P. mirabilis = experiment: Preventive effect on the systemic infection; format: in vivo; settings: Proteus mirabilis, in Mus musculus, P. mirabilis intraperitoneal infection, NMRI mice, survival on day 7, probit analysis, read-out: ED₅₀
Procedure: (§1) 10 fold of the pathogen which leads to 100% lethality were injected intraperitoneally to male and female NMRI mice weighing 18 to 20g. Immediately and after 4 hours, the dose of test compounds which was determined by two-fold serial dilution method was administered orally or subcutaneously; and on day 7, the effectiveness was evaluated in terms of ED₅₀ calculated from the number of survived mice by the probit analysis.

S. aureus 17740 = experiment: Preventive effect on the systemic infection; format: in vivo; settings: Staphylococcus aureus, 17740, in Mus musculus, S. aureus 17740 intraperitoneal infection, NMRI mice, survival on day 7, probit analysis, read-out: ED₅₀
Procedure: as §1

Escherichia coli OTEM = experiment: In vitro anti-bacterial activity test (MIC, two-fold agar dilution); format: cell-based; settings: Mueller-Hinton agar, 10⁷ CFU/mℓ, 37°C, 18 hours, read-out: MIC
Escherichia coli 1507E = experiment: as above; format: cell-based; settings: Mueller-Hinton agar, 10⁷ CFU/mℓ, 37°C, 18 hours, read-out: MIC
[11] = system: Klebsiella aerogenes 1082E; experiment: as above; format: cell-based; settings: Mueller-Hinton agar, 10⁷ CFU/mℓ, 37°C, 18 hours, read-out: MIC
[12] = system: Klebsiella aerogenes 1522E; experiment: as above; format: cell-based; settings: Mueller-Hinton agar, 10⁷ CFU/mℓ, 37°C, 18 hours, read-out: MIC
Enterobacter cloacae P99 = experiment: as above; format: cell-based; settings: Mueller-Hinton agar, 10⁷ CFU/mℓ, 37°C, 18 hours, read-out: MIC
[13] = system: Enterobacter cloacae 1321E; experiment: as above; format: cell-based; settings: Mueller-Hinton agar, 10⁷ CFU/mℓ, 37°C, 18 hours, read-out: MIC
in vivo = settings: female, ICR, mouse
Procedure: Test compounds were administered to female ICR mice weighing 20 to 25g and on day 14, LD₅₀ was calculated from the number of survived mice by the probit analysis.

[14] = Oral Administration immediately and after 4 hours
[15] = Subcutaneous Injection immediately and after 4 hours
[16] = Streptococcus pyogenes 77A, Mueller-Hinton agar, 10⁷ CFU/mℓ, 37°C, 18 hours, read-out: MIC
[17] = Streptococcus faecium MD 8b, Mueller-Hinton agar, 10⁷ CFU/mℓ, 37°C, 18 hours, read-out: MIC
[18] = SG511, Staphylococcus aureus SG 511, Mueller-Hinton agar, 10⁷ CFU/mℓ, 37°C, 18 hours, read-out: MIC
[19] = Staphylococcus aureus 285, Mueller-Hinton agar, 10⁷ CFU/mℓ, 37°C, 18 hours, read-out: MIC
[20] = Staphylococcus aureus 503, Mueller-Hinton agar, 10⁷ CFU/mℓ, 37°C, 18 hours, read-out: MIC
[21] = Pseudomonas aeruginosa 9027, Mueller-Hinton agar, 10⁷ CFU/mℓ, 37°C, 18 hours, read-out: MIC
[22] = Pseudomonas aeruginosa 1771, Mueller-Hinton agar, 10⁷ CFU/mℓ, 37°C, 18 hours, read-out: MIC

Row | Structure (SMILES) | MIC [1] [mg/L] | MIC (Escherichia coli O 55) [mg/L] | MIC (Escherichia coli DC 0) [mg/L] | MIC (Escherichia coli DC 2) [mg/L] | MIC [8] [mg/L] | MIC [10] [mg/L] | MIC (Salmonella typhimurium) [mg/L] | ED50 (P. mirabilis; [14]) [mg/kg] | ED50 (P. mirabilis; [15]) [mg/kg] | ED50 (S. aureus 17740; [14]) [mg/kg] | ED50 (S. aureus 17740; [15]) [mg/kg] | MIC [2, 16] [mg/L] | MIC [3, 17] [mg/L] | MIC [4, 18] [mg/L] | MIC [5, 19] [mg/L] | MIC [6, 20] [mg/L] | MIC (Escherichia coli OTEM) [mg/L] | MIC (Escherichia coli 1507E) [mg/L] | MIC [7, 21] [mg/L] | MIC [9, 22] [mg/L] | other results
1 | O=C(O)c1cn(C2CC2)c2cc(N3CCNCC3)c(F)cc2c1=O [Ciprofloxacin, reference compound] | 3.12 (≈ 9.43 µM) | 0.007 (≈ 0.0211 µM) | 0.391 (≈ 1.18 µM) | 0.195 (≈ 0.589 µM) | 0.391 (≈ 1.18 µM) | 0.195 (≈ 0.589 µM) | 0.049 (≈ 0.148 µM) | 0.92 | 0.28 | > 200 | 132 | – | – | – | – | – | – | – | – | – | MIC ([2]; Streptococcus pyogenes, 77A, 18 h): 0.781 mg/L (≈ 2.36 µM); MIC ([3]; 18 h): 0.781 mg/L (≈ 2.36 µM); MIC ([4]; Staphylococcus aureus, SG511, 18 h): 0.781 mg/L (≈ 2.36 µM); MIC ([5]; Staphylococcus aureus, 285, 18 h): 0.781 mg/L (≈ 2.36 µM); MIC ([6]; Staphylococcus aureus, 503, 18 h): 0.781 mg/L (≈ 2.36 µM); MIC ([7]; Pseudomonas aeruginosa, 9027, 18 h): 0.781 mg/L (≈ 2.36 µM); MIC ([9]; Pseudomonas aeruginosa, 1771, 18 h): 0.781 mg/L (≈ 2.36 µM)
2 | NC1CCC2=C1CN(c1c(F)cc3c(=O)c(C(=O)O)cn(C4CC4)c3c1F)C2 (stereo not shown) [Example 1, 7-[6-amino-3-azabicyclo[3,3,0]oct-1(5)ene-3-yl]-1-cyclopropyl-6,8-difluoro-1,4-dihydro-4-oxoquinoline-3-carboxylic acid] | 0.391 (≈ 1.01 µM) | 0.025 (≈ 0.0645 µM) | 0.391 (≈ 1.01 µM) | 0.098 (≈ 0.253 µM) | 1.56 (≈ 4.03 µM) | 0.391 (≈ 1.01 µM) | 0.049 (≈ 0.126 µM) | 5.5 | 1.55 | 105 | 25 | 0.098 (≈ 0.253 µM) | 0.098 (≈ 0.253 µM) | 0.098 (≈ 0.253 µM) | 0.098 (≈ 0.253 µM) | 0.049 (≈ 0.126 µM) | 0.049 (≈ 0.126 µM) | 0.049 (≈ 0.126 µM) | 1.56 (≈ 4.03 µM) | 1.56 (≈ 4.03 µM) | MIC [11]: 0.007 mg/L (≈ 0.0181 µM); MIC [12]: 0.098 mg/L (≈ 0.253 µM); MIC (Enterobacter cloacae P99): 0.098 mg/L (≈ 0.253 µM); MIC [13]: 0.025 mg/L (≈ 0.0645 µM); LD50 at 14 day (in vivo; ip): 720 mg/kg; LD50 at 14 day (in vivo; po): 4000 mg/kg
3 | CNC1CCC2=C1CN(c1c(F)cc3c(=O)c(C(=O)O)cn(C4CC4)c3c1F)C2 (stereo not shown) [Example 2, 1-cyclopropyl-6,8-difluoro-7-[6-methylamino-3-azabicyclo[3,3,0]oct-1(5)ene-3-yl]-1,4-dihydro-4-oxoquinoline-3-carboxylic acid] | 0.195 (≈ 0.486 µM) | 0.013 (≈ 0.0324 µM) | 0.781 (≈ 1.95 µM) | 0.098 (≈ 0.244 µM) | 1.56 (≈ 3.89 µM) | 0.781 (≈ 1.95 µM) | 0.391 (≈ 0.974 µM) | – | – | 112 | 27 | 0.098 (≈ 0.244 µM) | 0.098 (≈ 0.244 µM) | 0.049 (≈ 0.122 µM) | 0.098 (≈ 0.244 µM) | 0.049 (≈ 0.122 µM) | 0.098 (≈ 0.244 µM) | 0.098 (≈ 0.244 µM) | 3.12 (≈ 7.78 µM) | 1.56 (≈ 3.89 µM) | MIC [11]: 0.013 mg/L (≈ 0.0324 µM); MIC [12]: 0.049 mg/L (≈ 0.122 µM); MIC (Enterobacter cloacae P99): 0.049 mg/L (≈ 0.122 µM); MIC [13]: 0.013 mg/L (≈ 0.0324 µM); LD50 at 14 day (in vivo; ip): 810 mg/kg; LD50 at 14 day (in vivo; po): 4100 mg/kg
4 | NC1CCC2=C1CN(c1c(F)cc3c(=O)c(C(=O)O)cn(C4CC4)c3c1Cl)C2 (stereo not shown) [Example 3, 7-[6-amino-3-azabicyclo[3,3,0]oct-1(5)ene-3-yl]-1-cyclopropyl-8-chloro-6-fluoro-1,4-dihydro-4-oxoquinoline-3-carboxylic acid] | 0.195 (≈ 0.483 µM) | 0.049 (≈ 0.121 µM) | 0.781 (≈ 1.93 µM) | 0.049 (≈ 0.121 µM) | 1.56 (≈ 3.87 µM) | 0.391 (≈ 0.968 µM) | 0.049 (≈ 0.121 µM) | 5.9 | 1.43 | – | – | 0.049 (≈ 0.121 µM) | 0.098 (≈ 0.243 µM) | 0.025 (≈ 0.0619 µM) | 0.049 (≈ 0.121 µM) | 0.049 (≈ 0.121 µM) | 0.098 (≈ 0.243 µM) | 0.098 (≈ 0.243 µM) | 1.56 (≈ 3.87 µM) | 1.56 (≈ 3.87 µM) | MIC [11]: 0.013 mg/L (≈ 0.0322 µM); MIC [12]: 0.195 mg/L (≈ 0.483 µM); MIC (Enterobacter cloacae P99): 0.098 mg/L (≈ 0.243 µM); MIC [13]: 0.098 mg/L (≈ 0.243 µM); LD50 at 14 day (in vivo; ip): 731 mg/kg; LD50 at 14 day (in vivo; po): 4100 mg/kg
5 | COc1c(N2CC3=C(C2)C(N)CC3)c(F)cc2c(=O)c(C(=O)O)cn(C3CC3)c12 (stereo not shown) [Example 6, 7-[6-amino-3-azabicyclo[3,3,0]oct-1(5)ene-3-yl]-1-cyclopropyl-6-fluoro-8-methoxy-1,4-dihydro-4-oxoquinoline-3-carboxylic acid] | – | – | – | – | – | – | – | – | – | – | – | – | – | – | – | – | – | – | – | – | LD50 at 14 day (in vivo; ip): 755 mg/kg; LD50 at 14 day (in vivo; po): 4300 mg/kg
6 | CC1COc2c(N3CCN(C)CC3)c(F)cc3c(=O)c(C(=O)O)cn1c23 (stereo not shown) [Ofloxacin, reference compound] | 3.12 (≈ 8.65 µM) | 0.025 (≈ 0.0692 µM) | 0.781 (≈ 2.16 µM) | 0.391 (≈ 1.08 µM) | 1.56 (≈ 4.33 µM) | 0.391 (≈ 1.08 µM) | 0.098 (≈ 0.271 µM) | 2.27 | 0.53 | > 200 | 200 | 1.56 (≈ 4.33 µM) | 0.781 (≈ 2.16 µM) | 0.391 (≈ 1.08 µM) | 0.391 (≈ 1.08 µM) | 0.391 (≈ 1.08 µM) | 0.049 (≈ 0.136 µM) | 0.098 (≈ 0.271 µM) | 1.56 (≈ 4.33 µM) | 1.56 (≈ 4.33 µM) | MIC [11]: 0.025 mg/L (≈ 0.0692 µM); MIC [12]: 0.098 mg/L (≈ 0.271 µM); MIC (Enterobacter cloacae P99): 0.098 mg/L (≈ 0.271 µM); MIC [13]: 0.049 mg/L (≈ 0.136 µM)
